Source: US8609862B2, “Use of an adrenal hormone-modifying agent” (Novartis AG, priority 2010, dated 2013)

Columns and labels:
CYP11B2 = molecular target: T1, CYP11B2 (Rattus norvegicus, UniProt P30099); assay: In vivo assay: plasma aldosterone concentration (PAC) in ACTH-infused conscious rats; details: ACTH infusion; for % Reduction from baseline PAC t = 1 h: 1 h after dosing; for % Reduction from baseline PAC 8 h: 8 h after dosing
T1 construct: from tissue; host or cells: whole animal: conscious male Sprague-Dawley rats under ACTH infusion (the adrenal gland as site of the enzyme comes from the background, b5)
T1 sequence (P30099 35-510): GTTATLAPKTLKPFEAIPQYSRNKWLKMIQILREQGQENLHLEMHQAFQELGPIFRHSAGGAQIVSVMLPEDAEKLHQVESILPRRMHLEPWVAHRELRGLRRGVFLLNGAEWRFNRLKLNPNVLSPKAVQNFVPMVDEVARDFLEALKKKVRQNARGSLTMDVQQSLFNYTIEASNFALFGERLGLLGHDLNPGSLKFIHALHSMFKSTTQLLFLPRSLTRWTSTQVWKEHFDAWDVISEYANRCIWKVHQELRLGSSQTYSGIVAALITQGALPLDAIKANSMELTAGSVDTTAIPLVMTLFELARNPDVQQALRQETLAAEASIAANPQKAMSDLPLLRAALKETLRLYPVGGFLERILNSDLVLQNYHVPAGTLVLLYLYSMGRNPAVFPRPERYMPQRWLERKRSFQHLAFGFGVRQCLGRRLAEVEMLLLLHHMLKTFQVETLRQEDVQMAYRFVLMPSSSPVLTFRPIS
Experimental: The in vivo effects of compounds on plasma aldosterone concentration (PAC) and plasma glucocorticoid (corticosterone) concentration (PCC) were evaluated in conscious rats.
Male Sprague-Dawley rats (˜400-600 g body weight) were surgically instrumented with a femoral arterial and venous catheter. The catheters were exteriorized from the lower back through a stainless steel spring and swivel system that enabled the rats to move freely at all times. Rats were allowed at least one week to recover from the surgery before initiating the experiments.
On the morning of the experiment, a pretreatment blood sample was collected on heparin from the arterial catheter. The blood samples were spun in a refrigerated centrifuge to generate plasma. The plasma was stored frozen at −70° C. until the later measurement of PAC and PCC (by radioimmunoassay). Adrenocorticotropic hormone (ACTH(1-24), referred to herein as ACTH) was then administered as an intravenous (i.v.) bolus (100 ng/kg) followed by a continuous i.v. infusion (30 ng/kg/min) for 9 hours. After one hour of infusion, a baseline (time 0) blood sample was withdrawn from the arterial catheter and processed and stored as described above. The rats were then dosed (typically 0.01 to 100 mg/kg) with the test compound p.o. by oral gavage or parenterally via the arterial catheter (i.a.). Compounds were formulated in an appropriate vehicle (e.g., water (p.o.) or saline (i.a.)) at a physiologically compatible volume (typically 1-2 ml/kg). Additional blood samples were withdrawn at 0.083 (i.a. only), 0.25, 0.5, 1, 2, 3, 4, 5, 6, 7, 8, and 24 hours after dosing with compound and processed and stored as above for later determination of PAC, PCC, and plasma compound concentration (by LC/MS/MS). Oral bioavailability and traditional pharmacokinetic (PK) parameters were estimated from the plasma compound concentrations.
Based on the plasma compound concentration at each dose, the PK/PD (pharmacodynamic) profiles (reduction of PAC and PCC) of each compound were determined.

Human CYP11B2 = molecular target: T2, Human CYP11B2 (Homo sapiens, UniProt P19099); assay: In vitro human CYP11B2 (aldesterone) assay in NCI-H295R cells; assay type: cell-based; details: 1 μM Ang II, 24 hr, aldosterone production by SPA
T2 construct: host or cells: NCI-H295R human adrenocortical carcinoma cells, stimulated with 1 uM Ang II
T2 sequence (P19099 25-503): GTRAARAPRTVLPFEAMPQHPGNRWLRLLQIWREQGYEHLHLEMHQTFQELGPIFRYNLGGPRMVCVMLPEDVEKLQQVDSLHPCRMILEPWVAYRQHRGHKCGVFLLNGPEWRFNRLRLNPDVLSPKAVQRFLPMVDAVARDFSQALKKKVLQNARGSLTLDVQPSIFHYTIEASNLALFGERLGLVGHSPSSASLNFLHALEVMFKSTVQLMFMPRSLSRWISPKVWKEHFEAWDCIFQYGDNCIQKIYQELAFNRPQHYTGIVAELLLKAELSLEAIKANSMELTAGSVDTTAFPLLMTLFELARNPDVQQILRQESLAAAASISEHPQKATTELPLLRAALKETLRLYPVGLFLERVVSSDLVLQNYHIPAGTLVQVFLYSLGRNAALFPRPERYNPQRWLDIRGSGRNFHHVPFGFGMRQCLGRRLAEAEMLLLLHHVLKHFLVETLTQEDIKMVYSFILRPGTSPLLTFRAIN
Description: Human adrenocortical carcinoma NCI-H295R cell line was obtained from American Type Culture Collection (Manassas, Va.). […] Anti-mouse PVT scintillation proximity assay (SPA) beads and NBS 96-well plates were obtained from GE Health Sciences (Piscataway, N.J.) and Corning (Acton, Mass.), respectively. Solid black 96-well flat bottom plates were purchased from Costar (Corning, N.Y.). Aldosterone and angiotensin (Ang II) were purchased from Sigma (St. Louis, Mo.). D-[1,2,6,7-^3H(N)]aldosterone was acquired from PerkinElmer (Boston, Mass.). Nu-serum was a product of BD Biosciences (Franklin Lakes, N.J.).
Measurement of aldosterone activity can also be performed using a 96-well plate format. […] The amount of aldosterone in each sample is calculated by comparing with a standard curve generated using known quantities of the hormone.
Inhibition of the release of certain steroids can be used as a measure of the respective enzyme inhibition by the added test compounds. […] The inhibition plot is calculated by fitting a 4-parameter logistic function to the raw data points using the least squares method. The equation of the 4-parameter logistic function is calculated as follows: Y=(d−a)/((1+(x/c)b))+a, where: a=minimum data level, b=gradient, I […], d=maximum data level, x=inhibitor concentration.

Structure (SMILES)	% Reduction from baseline PAC t = 1 h (CYP11B2; 3 mg/kg i.a.) [%]	% Reduction from baseline PAC 8 h (CYP11B2; 3 mg/kg i.a.) [%]	IC50 (Human CYP11B2) [nM]	% Reduction from baseline PAC t = 1 h (CYP11B2; 30 mg/kg i.a.) [%]	% Reduction from baseline PAC 8 h (CYP11B2; 30 mg/kg i.a.) [%]	% Reduction from baseline PAC t = 1 h (CYP11B2; 10 mg/kg p.o.) [%]	% Reduction from baseline PAC 8 h (CYP11B2; 10 mg/kg p.o.) [%]
N#Cc1ccc(C2CCCCc3cncn32)c(-c2ccc(F)cc2)c1 (single isomer, unassigned) [4′-fluoro-6-(6,7,8,9-tetrahydro-5H-imidazo[1,5-a]azepin-5-yl)biphenyl-3-carbonitrile]	83	76	0.4				
COc1ccc(CN(C)C(=O)C2(c3ccc(C#N)cc3Cl)CCc3cncn32)cc1 (stereo not drawn) [5-(2-chloro-4-cyanophenyl)-N-(4-methoxybenzyl)-N-methyl-6,7-dihydro-5H-pyrrolo[1,2-c]imidazole-5-carboxamide]			2.7	23	59		
N#Cc1ccc(C2CCCCc3cncn32)c(Br)c1 (racemic) [3-bromo-4-(6,7,8,9-tetrahydro-5H-imidazo[1,5-a]azepin-5-yl)benzonitrile racemate, 3-bromo-4-(6,7,8,9-tetrahydro-5H-imidazo[1,5-a]azepin-5-yl)benzonitrile]			1.2			79	89
